# Data: patent publication US12605374B2, “Methods for drug screening and compositions useful for the inhibition of cell proliferation and/or cell survival” (The Brigham and Women's Hospital, Inc., priority 2019, dated 2026)
# “Also recorded” adds a separate entry of the source.
# Experiments:
# [1] = tested on: zebrafish embryos; assay: DA5 dose, time course and washout analysis of developmental delay/arrest; format: in vivo
# Description: FIG. 4 (A)-(E): Function of delay/arrest compounds. 7 of the 10 compounds predicted as having a delay/arrest phenotype with the highest confidence caused obvious but divergent delay/arrest effects (A). For chemical structures associated with these Chembridge IDs see Figure S13. (www.chembridge.com). Some arrested development at shield stage, while others caused a slower developmental progression.
# We reasoned that this was likely due to differences in the target affinities of the various DA compounds.
# [2] = tested on: zebrafish embryos; assay: Respiration rate analysis (Seahorse XF24 oxygen consumption); format: in vivo; conditions: embryos from 5 hpf, versus DMSO control
# Description: Analysis of embryonic respiration was performed using a Seahorse XF24 analyzer (Agilent). Embryos at 5 hours post fertilization were arrayed in E3 media at 3 per well in a 24-well standard Seahorse plate using an isolating mesh (as in Stackley et al^72). Each plate contained four replicates of each indicated compound of interest, as well as 4 control wells receiving the equivalent DMSO as contained in the indicated compound solution, and 4 wells with no embryos present to act as a baseline for oxygen content of the media. The sample baseline was read for 5 cycles (3 minute mix, 2 minute wait, 5 minute measure), then compounds were introduced in a single 40-cycle injection phase (3 minute mix, 2 minute wait, 5 minute measure). Measurement data were exported using Seahorse software (Agilent) and averaged over 3 experimental days.
# [3] = tested on: Phospholipase D (Streptomyces chromofuscus); assay: In vitro Phospholipase D activity assay (Amplex Red kit); format: biochemical; conditions: listed as DA5
# [4] = target: Phospholipase A2 (Apis mellifera, UniProt P00630); format: biochemical
# Sequence of Phospholipase A2 (P00630 34-167 limits assumed): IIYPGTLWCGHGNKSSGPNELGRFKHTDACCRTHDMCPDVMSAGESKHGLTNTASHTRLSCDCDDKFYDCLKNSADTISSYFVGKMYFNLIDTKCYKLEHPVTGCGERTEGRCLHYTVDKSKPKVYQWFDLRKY
smiles,measurement,setting,value
"CCC1(CC)CCN(C(=O)c2cc(COc3ccc4ncccc4c3)on2)C1 [ChemBridge ID 65692859, 6-([3-[(3,3-diethylpyrrolidin-1-yl)carbonyl]isoxazol-5-yl]methoxy)quinoline]",time course analysis: effect in more developed embryos,[1]; introduced at 24 hours post fertilization and beyond,mortality being almost immediate
same,time course analysis: effect on early development,"[1]; introduced at early stages (<12 h), up to and during gastrulation, listed as DA5",arrest up to and during gastrulation immediately after introduction; also recorded: arrested development at any stage of early (<12 h) development
same,developmental phenotype,[1]; introduced in zebrafish embryo medium at 5 μM,developmental delay
same,developmental phenotype,[1]; introduced in zebrafish embryo medium at 10 μM,sphere stage arrest
same,recovery of embryos after washout,[1]; washout of compound,did not allow embryos to recover
same,respiration rate (oxygen consumption rate),[2],consistent respiration rate
same,activity of phospholipase D,[3],decrease in the activity; also recorded: inhibit phospholipase D activity
same,activity of phospholipase A2,[4],increased activity
